According to US11292773B2, “Small molecule inhibitors of BCL-2-associated death promoter (BAD) phosphorylation” (NATIONAL UNIVERSITY OF SINGAPORE, priority 2017, dated 2022):

Test system: MCF7 cells
Test: Annexin V and propidium iodide apoptosis assay (FACS)
Format: cell-based, human
Details: about 24 hours, dose dependent manner
Procedure: Phosphatidylserine exposure and cell death are assessed by FACS analysis using Annexin-V-FLUOS Staining Kit (Life Technologies, Singapore) and PI-stained cells. Briefly, 1×10^5 MCF cells/well (190 μL/well) are seeded in 6-well plates and incubated with different concentrations of NPB for about 24 hours and DMSO treated samples are used as control. Cells are then washed with Annexin V binding buffer (10 mM HEPES/NaOH, pH7.4, 140 mM NaCl, 2.5 mM CaCl2), stained with Annexin V FITC for about 30 minutes at room temperature in the dark, then washed again and re-suspended in Annexin V binding buffer containing PI. Samples are analyzed immediately on a BD FACSAria Cell Sorter (BD Biosciences, San Jose, Calif.).
Loss of membrane integrity and translocation of phosphatidylserine to outer leaflet of plasma membrane are the early events of apoptosis which can be detected using FITC conjugated annexin-V and propidium iodide staining. It is observed that NPB induces apoptosis in MCF7 cells using FITC-annexin V and propidium iodide. On treatment with NPB, increase in both early (PI negative, FITC-Annexin V positive) and late apoptotic cells (PI positive, FITC-Annexin V positive) is observed in a dose dependent manner as shown in FIG. 13A.

## O=C(NC1CCCC1)c1cccc(C(c2ccccc2O)N2CCN(c3cccc(Cl)c3Cl)CC2)c1 (stereo not shown) [NPB, N-cyclopentyl-3-((4-(2,3-dichlorophenyl)piperazin-1-yl)(2-hydroxyphenyl)methyl) benzamide]
  early and late apoptotic cells (FITC-Annexin V / PI): increase
